Publication PMC6105598, “Targeting protein-protein interactions for therapeutic discovery via FRET-based high-throughput screening in living cells” (Scientific Reports, 2018)
Values joined by “and” are separate entries in the source; they are usually repeats but may differ in a detail not shown here. Identical values can stand only once. Like-named read-outs stand apart in the source and are kept apart here.

How the values were obtained:
[1] = biological target: T1, cardiac SR (SERCA2a + PLB) (Sus scrofa, UniProt P11607); test: Ca-ATPase activity of cardiac SR (CSR), NADH-linked enzyme-coupled assay; format: biochemical, pig; conditions: for Vmax @ 30 µM / ΔVmax @ 30 µM: 30 µM compound; for ΔVmax @ 30 µM: relative to DMSO control
T1 construct: Cardiac SR membrane vesicles were isolated from ventricular myocardium obtained from fresh pig hearts; from tissue; host or cells: pig ventricular myocardium, SR membrane vesicles
T1 sequence (P11607 1-997 isoform P11607-2): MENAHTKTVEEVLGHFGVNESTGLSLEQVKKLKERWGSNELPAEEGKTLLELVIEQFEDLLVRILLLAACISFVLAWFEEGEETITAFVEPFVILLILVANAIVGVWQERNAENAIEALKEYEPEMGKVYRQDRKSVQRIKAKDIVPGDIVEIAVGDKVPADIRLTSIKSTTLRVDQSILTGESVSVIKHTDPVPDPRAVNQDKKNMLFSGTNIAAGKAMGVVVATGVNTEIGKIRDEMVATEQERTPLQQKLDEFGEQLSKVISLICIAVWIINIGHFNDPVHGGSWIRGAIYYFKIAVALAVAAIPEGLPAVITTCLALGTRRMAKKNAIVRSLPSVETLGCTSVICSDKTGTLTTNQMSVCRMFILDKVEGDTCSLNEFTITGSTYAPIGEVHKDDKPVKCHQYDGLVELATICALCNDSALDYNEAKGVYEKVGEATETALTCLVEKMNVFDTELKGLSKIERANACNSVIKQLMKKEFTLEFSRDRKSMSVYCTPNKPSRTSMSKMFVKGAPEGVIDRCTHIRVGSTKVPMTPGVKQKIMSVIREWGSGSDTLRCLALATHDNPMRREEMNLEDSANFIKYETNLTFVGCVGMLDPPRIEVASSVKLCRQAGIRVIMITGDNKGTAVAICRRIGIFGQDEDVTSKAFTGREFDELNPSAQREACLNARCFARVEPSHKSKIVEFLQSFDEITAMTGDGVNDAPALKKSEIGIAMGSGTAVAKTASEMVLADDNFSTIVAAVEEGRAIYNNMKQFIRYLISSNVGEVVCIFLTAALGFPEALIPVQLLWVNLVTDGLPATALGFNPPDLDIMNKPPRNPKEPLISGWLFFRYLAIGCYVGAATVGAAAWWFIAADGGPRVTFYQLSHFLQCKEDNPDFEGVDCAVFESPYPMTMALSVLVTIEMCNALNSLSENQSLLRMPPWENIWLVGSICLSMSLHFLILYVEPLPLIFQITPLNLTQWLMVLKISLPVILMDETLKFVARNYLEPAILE
T1 sequence (P61013 whole entry partner): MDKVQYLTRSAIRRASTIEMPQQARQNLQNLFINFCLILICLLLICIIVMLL
Description: To characterize the relationship between the structural readout (FRET) and the functional effects, in vitro Ca-ATPase assays were performed on cardiac SR (which contains both SERCA2a and PLB). […] To further examine the functional effects of Hit compounds, Ca-ATPase assays were performed on both skeletal SR (SERCA1a only) and cardiac SR (SERCA2a + PLB) at a series of Ca concentrations ranging from pCa 5 to 8.
(§1) Skeletal muscle SR membrane vesicles were isolated from longissimus dorsi obtained from New Zealand white rabbits, as previously described. Cardiac SR membrane vesicles were isolated from ventricular myocardium obtained from fresh pig hearts. All experimental protocols were reviewed and approved by University of Minnesota’s Institutional Animal Care and Use Committee, an Association for Assessment and Accreditation of Laboratory Animal Care institution.
(§2) An enzyme-coupled, NADH-linked ATPase assay was used to measure SERCA ATPase activity in 96-well microplates. Each well contained 0.8 μg (skeletal) or 2 μg (cardiac) of SR vesicles adjusted for the different SERCA contents of skeletal and cardiac SR, 50 mM MOPS (pH 7.0), 100 mM KCl, 5 mM MgCl2, 1 mM EGTA, 0.2 mM NADH, 1 mM phosphoenol pyruvate, 10 IU/mL of pyruvate kinase, 10 IU/mL of lactate dehydrogenase, 3.5 μg/mL of the Ca ionophore A23187, and CaCl2 added to set free [Ca] to the desired values. The assay was started upon the addition of ATP at a final concentration of 5 mM and read in a SpectraMax Plus microplate spectrophotometer rom Molecular Devices (Sunnyvale, CA).

[2] = biological target: SERCA2a-PLB complex (GFP-SERCA2a / RFP-PLB in HEK293 cells) (Homo sapiens, UniProt P16615+P26678, C36A/C41F/C46A); test: SERCA2a-PLB TR-FRET (fluorescence lifetime) biosensor assay in living cells; format: cell-based; parameters: expressed in transfected cells; host or cells: HEK293; conditions: for ΔFLT: compound incubation for 20 min, uncertainty (1 S.D.) 11 ps; for direction of FRET change of the SERCA2a-PLB biosensor: concentration-response 0.01-100 µM
Chain of SERCA2a-PLB complex (GFP-SERCA2a / RFP-PLB in HEK293 cells) (P16615 1-997 isoform P16615-2, stated change not applied): as the sequence (P11607 1-997 isoform P11607-2) above, with K371R, K403N, P538S, M570L, N576H, E667D, S713A, T865S, V889I, L963V counted along it
Chain of SERCA2a-PLB complex (GFP-SERCA2a / RFP-PLB in HEK293 cells) (P26678 whole entry C36A/C41F/C46A): as the sequence (P61013 whole entry partner) above, with D2E, N27K, C36A, C41F, C46A counted along it

[3] = biological target: T2, skeletal SR (SERCA1a only) (Oryctolagus cuniculus, UniProt P04191); test: Ca-ATPase activity of skeletal SR (SSR), NADH-linked enzyme-coupled assay; format: biochemical, rabbit; conditions: for EC50 / Vmax @ 30 µM / percent change in Vmax vs DMSO control at 30 µM / ΔVmax @ 30 µM: SSR; for Vmax @ 30 µM / percent change in Vmax vs DMSO control at 30 µM / ΔVmax @ 30 µM: 30 µM compound; for percent change in Vmax vs DMSO control at 30 µM / ΔVmax @ 30 µM: relative to DMSO control; for percent change in Vmax vs DMSO control at 30 µM: read-out: ΔVmax @ 30 µM
T2 construct: Skeletal muscle SR membrane vesicles were isolated from longissimus dorsi obtained from New Zealand white rabbits; from tissue; host or cells: rabbit longissimus dorsi skeletal muscle, SR membrane vesicles
T2 sequence (P04191 1-994 isoform P04191-2): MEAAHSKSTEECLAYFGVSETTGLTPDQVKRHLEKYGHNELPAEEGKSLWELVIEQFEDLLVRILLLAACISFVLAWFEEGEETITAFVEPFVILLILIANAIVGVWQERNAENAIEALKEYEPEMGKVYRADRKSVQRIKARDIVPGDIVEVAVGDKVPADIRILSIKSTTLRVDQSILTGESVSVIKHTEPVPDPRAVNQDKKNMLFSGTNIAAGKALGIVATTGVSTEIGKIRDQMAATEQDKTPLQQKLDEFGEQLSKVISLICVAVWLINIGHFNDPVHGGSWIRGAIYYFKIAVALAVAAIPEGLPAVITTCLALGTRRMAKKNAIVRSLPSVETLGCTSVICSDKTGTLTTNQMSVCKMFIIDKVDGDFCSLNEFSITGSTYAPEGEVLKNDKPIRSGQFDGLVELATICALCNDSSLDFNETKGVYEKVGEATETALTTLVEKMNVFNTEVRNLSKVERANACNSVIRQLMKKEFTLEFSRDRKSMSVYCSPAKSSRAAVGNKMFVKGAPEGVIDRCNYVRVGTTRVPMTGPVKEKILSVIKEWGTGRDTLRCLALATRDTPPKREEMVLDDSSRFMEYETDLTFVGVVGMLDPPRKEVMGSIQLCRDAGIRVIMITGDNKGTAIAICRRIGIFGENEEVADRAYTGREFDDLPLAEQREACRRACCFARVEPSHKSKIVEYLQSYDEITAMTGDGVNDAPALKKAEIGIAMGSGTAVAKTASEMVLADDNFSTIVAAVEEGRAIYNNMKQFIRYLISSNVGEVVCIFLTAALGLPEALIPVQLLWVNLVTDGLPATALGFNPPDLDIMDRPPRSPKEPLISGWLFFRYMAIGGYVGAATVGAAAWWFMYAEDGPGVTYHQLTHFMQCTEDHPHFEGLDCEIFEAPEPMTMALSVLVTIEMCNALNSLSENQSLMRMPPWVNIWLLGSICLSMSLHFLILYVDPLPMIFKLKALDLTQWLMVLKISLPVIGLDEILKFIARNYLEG
Description: To further examine the functional effects of Hit compounds, Ca-ATPase assays were performed on both skeletal SR (SERCA1a only) and cardiac SR (SERCA2a + PLB) at a series of Ca concentrations ranging from pCa 5 to 8.
as §1, §2

[4] = concentration-response 0.01-100 µM compound, live HEK293 cells

| SMILES | Vmax @ 30 µM ([1]; CSR) | ΔVmax @ 30 µM ([1]; CSR) | EC50 ([1]; CSR, read-out: EC50 Vmax) | ΔFLT ([2]; final concentration 10 µM) | ΔFLT ([2]; final concentration 100 µM) | EC50 [2, 4] | EC50 [3] | Vmax @ 30 µM [3] | percent change in Vmax vs DMSO control at 30 µM [3] | EC50 [2] | ΔVmax @ 30 µM [3] | increase of Vmax ([1]; cardiac SR) | direction of FRET change of the SERCA2a-PLB biosensor [2] | increase of Vmax ([3]; skeletal SR) | EC50 ([1]; cardiac SR (SERCA2a + PLB), read-out: EC50 of the increase in Ca affinity (pKCa)) | increase of Ca-ATPase activity at pCa 6.4 ([1]; cardiac SR, pCa 6.4, 24 µM compound) | Ca affinity (pKCa) in cardiac SR with compound ([1]; increased from 6.05 (control), concentration-dependent, up to 64 µM) | effect on Ca affinity in skeletal SR ([3]; even at the highest compound concentrations) | decrease of Vmax ([1]; cardiac SR) | decrease of Vmax ([3]; skeletal SR) |
| --- | --- | --- | --- | --- | --- | --- | --- | --- | --- | --- | --- | --- | --- | --- | --- | --- | --- | --- | --- | --- |
| CCOc1nc2cccc(C(=O)OC(C)OC(=O)OC3CCCCC3)c2n1Cc1ccc(-c2ccccc2-c2nnn[nH]2)cc1 (stereo not shown) [Candesartan cilexetil] | 0.17 i.u. | -75.3% | 11.7 µM | 70 ps | 181 ps | 20.1 µM | 7.42 µM | 0.41 i.u. | -84.5% |  |  |  |  |  |  |  |  |  |  |  |
| NC(=O)N1C(=O)/C(=C(\O)c2cccs2)c2cc(Cl)ccc21 [Tenidap] | 0.66 i.u. | -1.7% |  | 8 ps | -68 ps |  |  | 2.66 i.u. | 1.8% | > 100 µM |  |  |  |  |  |  |  |  |  |  |
| CCc1ccc(/C=C2/SC(=S)NC2=O)cc1 [10058-F4] | 0.63 i.u. | -7.5% |  | 17 ps | -11 ps |  |  | 2.63 i.u. |  |  | 0.5% |  |  |  |  |  |  |  |  |  |
| CNC(=O)c1cc2c(cn1)[nH]c1ccccc12 [FG7142] | 0.67 i.u. | -0.7% |  | 4 ps | 10 ps |  |  | 2.63 i.u. |  |  | 0.5% |  |  |  |  |  |  |  |  |  |
| CCCCN(CC)c1nc(C)nc2c1c(C)cn2-c1c(C)cc(C)cc1C [CP 154526] | 0.91 i.u. | 34.4% | 1 µM | 48 ps | 185 ps | 9.3 µM | 2.5 µM and 2.47 µM | 3.40 i.u. | 35% |  |  | 34% | decrease in FRET | 35% |  |  |  |  |  |  |
| O=C(c1cc(O)c(O)c([N+](=O)[O-])c1)c1ccccc1F [Ro 41-0960] | 0.53 i.u. | -20.9% |  | -26 ps | -152 ps | 22.5 µM | 9.78 µM | 1.44 i.u. |  |  | -45.1% |  | increase in FRET |  | 23 µM | 44% | 6.45 | no effect |  |  |
| CC(C)(C)c1ccc(/C=C/C(=O)Nc2ccc3c(c2)OCCO3)cc1 [AMG9810] | 0.68 i.u. | 0.1% |  | 6 ps | -1 ps |  |  | 2.62 i.u. |  |  | 0.1% |  |  |  |  |  |  |  |  |  |
| CC1=C(/C=C/C(C)=C/C=C/C(C)=C/C(=O)O)C(C)(C)CCC1 [Retinoic Acid] | 0.42 i.u. | -37.8% | 11.2 µM | 27 ps | -31 ps | 65.5 µM |  | 2.34 i.u. | -10.6% |  |  |  |  |  |  |  |  |  |  |  |
| COC(=O)c1c(C)[nH]c(C)c1C(=O)c1ccccc1Cc1ccccc1 [FPL 64176] | 0.52 i.u. | -23.0% |  | 19 ps | 47 ps | > 100 µM |  | 2.64 i.u. |  |  | 0.7% |  |  |  |  |  |  |  |  |  |
| CN1CCC[C@@H]1Cc1c[nH]c2ccc(Nc3ncccc3[N+](=O)[O-])cc12 [CP-135807] | 0.65 i.u. | -3.8% |  | -70 ps | -390 ps | > 100 µM |  | 2.67 i.u. |  |  | 2.1% |  |  |  |  |  |  |  |  |  |
| Clc1ccc(C(c2ccc(Cl)cc2)n2cc[n+](CC(OCc3ccc(Cl)cc3Cl)c3ccc(Cl)cc3Cl)c2)cc1 (stereo not shown) [Calmidazolium] | 0.08 i.u. | -88.7% | 15.9 µM | 45 ps | -192 ps | 26.3 µM | 7.43 µM | 0.01 i.u. | -99.5% |  |  |  |  |  |  |  |  |  |  |  |
| Cc1[nH]c(=O)c(C#N)cc1-c1ccc2nccn2c1 [Olprinone] | 0.68 i.u. | -0.1% |  | 36 ps | 254 ps | > 100 µM |  | 2.70 i.u. | 3% |  |  |  |  |  |  |  |  |  |  |  |
| O=C(Nc1cccnc1)N1CCC(Cc2cccc(Oc3ccc(C(F)(F)F)cn3)c2)CC1 [PF3845] | 0.48 i.u. | -28.3% |  | 30 ps | 38 ps |  |  | 2.61 i.u. | -0.2% | 3.2 µM |  |  |  |  |  |  |  |  |  |  |
| CN=c1nc(-c2ccccc2)n(-c2ccccc2)s1 [SCH 202676] | 0.22 i.u. | -68.2% | 1.4 µM | 36 ps | 35 ps | 1.8 µM | 0.9 µM | 0.07 i.u. |  |  | -97.3% |  | decrease in FRET |  |  |  |  |  | 68% | 97% |
| Brc1c(Br)c(Br)c2n[nH]nc2c1Br [TBB] | 0.49 i.u. | -27.2% |  | 31 ps | 63 ps | 73.2 µM |  | 2.66 i.u. |  |  | 1.6% |  |  |  |  |  |  |  |  |  |
| C=C(C)[C@H]1Cc2c(ccc3c2O[C@@H]2COc4cc(OC)c(OC)cc4[C@@H]2C3=O)O1 [Rotenone] | 0.53 i.u. | -22.0% |  |  |  |  |  | 2.64 i.u. | 0.7% |  |  |  |  |  |  |  |  |  |  |  |
